Target: SMYD2 (Homo sapiens (Human), UniProt Q9NRG4)
Assay: SMYD2 biochemical assay (SMYD2 enzyme assay on peptide substrate, 3H-SAM Flashplate)
Details: read-out: SMYD2 Biochem IC50; IC50 values are an average of n = 1 to n = 50
Excerpt: S-adenosylmethionine (SAM), S-adenosylhomocysteine (SAH), bicine, Tween20, dimethylsulfoxide (DMSO), bovine skin gelatin (BSG), and Tris(2-carboxyethyl)phosphine hydrochloride (TCEP) were purchased from Sigma-Aldrich at the highest level of purity possible. ^3H-SAM was purchase from American Radiolabeled Chemicals with a specific activity of 80 Ci/mmol. 384-well streptavidin Flashplates were purchased from PerkinElmer.
The sequence was [sequence](K-Biot)-amide.
Production of Recombinant SMYD2 Enzymes for Biochemical Enzyme Activity Assays
Full length SMYD2 (NP_064582.2) was cloned into a pFastbac-Htb-lic vector with an N-terminal His6 tag and FLAG tag, preceded by a TEV protease cleavage site. The protein was expressed in Sf9 insect cells. Cells were resuspended in lysis buffer (25 mM HEPES-NaOH, pH 7.5, 200 mM NaCl, 5% glycerol, and 5 mM (3-ME) and lysed by sonication. The protein was purified by Ni-NTA (Qiagen), followed by TEV cleavage to remove the His6 tag, subtractive Ni-NTA (Qiagen), and gel filtration chromatography using an S200 column (GE Healthcare). Purified protein was stored in 20 mM Tris-HCl, pH 8.0, 100 mM NaCl, and 1 mM TCEP.
General Procedure for SMYD2 Enzyme Assays on Peptide Substrates
The assays were all performed in a buffer consisting of 20 mM Bicine (pH=7.6), 1 mM TCEP, 0.005% Bovine Skin Gelatin, and 0.002% Tween20, prepared on the day of use. […] DMSO (1 ul) was added to Columns 11, 12, 23, 24, rows A-H for the maximum signal control and 1 ul of SAH, a known product and inhibitor of SMYD2, was added to columns 11, 12, 23, 24, rows I-P for the minimum signal control. A cocktail (40 ul) containing the SMYD2 enzyme was added by Multidrop Combi (Thermo-Fisher). The compounds were allowed to incubate with SMYD2 for 30 min at room temperature, then a cocktail (10 ul) containing ^3H-SAM and peptide was added to initiate the reaction (final volume=51 ul). […] The assays were stopped by the addition of non-radioactive SAM (10 ul) to a final concentration of 600 uM, which dilutes the ^3H-SAM to a level where its incorporation into the peptide substrate is no longer detectable. 50 ul of the reaction in the 384-well polypropylene plate was then transferred to a 384-well Flashplate and the biotinylated peptides were allowed to bind to the streptavidin surface for at least 1 hour before being washed three times with 0.1% Tween20 in a Biotek ELx405 plate washer. The plates were then read in a PerkinElmer TopCount plate reader to measure the quantity of ^3H-labeled peptide bound to the Flashplate surface, measured as disintegrations per minute (dpm) or alternatively, referred to as counts per minute (cpm).
Where dpm=disintegrations per minute, cmpd=signal in assay well, and min and max are the respective minimum and maximum signal controls.
Where top and bottom are the normally allowed to float, but may be fixed at 100 or 0 respectively in a 3-parameter fit. The Hill Coefficient normally allowed to float but may also be fixed at 1 in a 3-parameter fit. I is the compound concentration.

Chain of SMYD2 (Q9NRG4 whole entry): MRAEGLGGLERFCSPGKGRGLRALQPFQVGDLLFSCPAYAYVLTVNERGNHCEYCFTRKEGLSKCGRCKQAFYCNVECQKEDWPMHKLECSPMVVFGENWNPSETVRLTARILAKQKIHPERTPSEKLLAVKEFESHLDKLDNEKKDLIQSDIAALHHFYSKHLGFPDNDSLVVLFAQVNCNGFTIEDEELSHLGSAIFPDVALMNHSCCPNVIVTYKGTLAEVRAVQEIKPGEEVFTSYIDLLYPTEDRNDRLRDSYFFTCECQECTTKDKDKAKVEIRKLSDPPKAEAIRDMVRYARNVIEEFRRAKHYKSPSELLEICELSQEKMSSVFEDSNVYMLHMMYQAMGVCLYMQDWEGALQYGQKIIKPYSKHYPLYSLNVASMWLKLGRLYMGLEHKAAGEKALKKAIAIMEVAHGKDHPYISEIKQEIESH

IC50 [nM] | SMILES
120 | Cc1coc(Cn2cc(CN3CC(NC(=O)c4cn(C5CC5)nn4)C3)cn2)n1 [compound 937, 1-cyclopropyl-N-(1-((1-((4-methyloxazol-2-yl)methyl)-1H-pyrazol-4-yl)methyl)azetidin-3-yl)-1H-1,2,3-triazole-4-carboxamide]
130 | COc1ccc(Cl)c(C(C)N2CC(NC(=O)c3cn(C4CC4)nn3)C2)c1 (stereo not drawn) [compound 938, N-(1-(1-(2-chloro-5-methoxyphenyl)ethyl)azetidin-3-yl)-1-cyclopropyl-1H-1,2,3-triazole-4-carboxamide]
3600 | COc1cc(C(C)N2CC(NC(=O)c3cn(C4CC4)nn3)C2)ccc1OCc1ccccc1 (stereo not drawn) [compound 939, N-(1-(1-(4-(benzyloxy)-3-methoxyphenyl)ethyl)azetidin-3-yl)-1-cyclopropyl-1H-1,2,3-triazole-4-carboxamide]
7700 | O=C(NC1CN(Cc2cn[nH]c2)C1)c1cn(C2CC2)nn1 [compound 940, N-(1-((1H-pyrazol-4-yl)methyl)azetidin-3-yl)-1-cyclopropyl-1H-1,2,3-triazole-4-carboxamide]
28 | CSc1ccc(Cn2cc(CN3CC(NC(=O)c4cn(C5CC5)nn4)C3)cn2)cc1 [compound 941, 1-cyclopropyl-N-(1-((1-(4-(methylthio)benzyl)-1H-pyrazol-4-yl)methyl)azetidin-3-yl)-1H-1,2,3-triazole-4-carboxamide]
110 | O=C(NC1CN(Cc2cnn(Cc3ccccc3Cl)c2)C1)c1cn(C2CC2)nn1 [compound 942, N-(1-((1-(2-chlorobenzyl)-1H-pyrazol-4-yl)methyl)azetidin-3-yl)-1-cyclopropyl-1H-1,2,3-triazole-4-carboxamide]
14 | O=C(NC1CN(Cc2cnn(Cc3ccc(C(F)(F)F)cc3)c2)C1)c1cn(C2CC2)nn1 [compound 943, 1-cyclopropyl-N-(1-((1-(4-(trifluoromethyl)benzyl)-1H-pyrazol-4-yl)methyl)azetidin-3-yl)-1H-1,2,3-triazole-4-carboxamide]
920 | O=C(NC1CN(Cc2cnn(Cc3ncco3)c2)C1)c1cn(C2CC2)nn1 [compound 944, 1-cyclopropyl-N-(1-((1-(oxazol-2-ylmethyl)-1H-pyrazol-4-yl)methyl)azetidin-3-yl)-1H-1,2,3-triazole-4-carboxamide]
1200 | O=C(NC1CN(Cc2cnn(Cc3cscn3)c2)C1)c1cn(C2CC2)nn1 [compound 945, 1-cyclopropyl-N-(1-((1-(thiazol-4-ylmethyl)-1H-pyrazol-4-yl)methyl)azetidin-3-yl)-1H-1,2,3-triazole-4-carboxamide]
2000 | CCn1cc(CN2CC(NC(=O)c3cn(C4CC4)nn3)C2)cn1 [compound 946, 1-cyclopropyl-N-(1-((1-ethyl-1H-pyrazol-4-yl)methyl)azetidin-3-yl)-1H-1,2,3-triazole-4-carboxamide]
56 | CC(C)(C)c1ccc(Cn2cc(CN3CC(NC(=O)c4cn(C5CC5)nn4)C3)cn2)cc1 [compound 947, N-(1-((1-(4-(tert-butyl)benzyl)-1H-pyrazol-4-yl)methyl)azetidin-3-yl)-1-cyclopropyl-1H-1,2,3-triazole-4-carboxamide]
360 | O=C(NC1CN(Cc2cnn(CC3CCCCC3)c2)C1)c1cn(C2CC2)nn1 [compound 948, N-(1-((1-(cyclohexylmethyl)-1H-pyrazol-4-yl)methyl)azetidin-3-yl)-1-cyclopropyl-1H-1,2,3-triazole-4-carboxamide]
2400 | O=C(NC1CN(Cc2cnn(CC3CCOCC3)c2)C1)c1cn(C2CC2)nn1 [compound 949, 1-cyclopropyl-N-(1-((1-((tetrahydro-2H-pyran-4-yl)methyl)-1H-pyrazol-4-yl)methyl)azetidin-3-yl)-1H-1,2,3-triazole-4-carboxamide]
2000 | O=C(NC1CN(Cc2cnn(CC3CCOC3)c2)C1)c1cn(C2CC2)nn1 (stereo not drawn) [compound 950, 1-cyclopropyl-N-(1-((1-((tetrahydrofuran-3-yl)methyl)-1H-pyrazol-4-yl)methyl)azetidin-3-yl)-1H-1,2,3-triazole-4-carboxamide]
22 | O=C(NC1CN(Cc2cnn(Cc3ccc(F)cc3)c2)C1)c1cn(C2CC2)nn1 [compound 951, 1-cyclopropyl-N-(1-((1-(4-fluorobenzyl)-1H-pyrazol-4-yl)methyl)azetidin-3-yl)-1H-1,2,3-triazole-4-carboxamide]
1630 | CC(c1ccc2c(cnn2C)c1)N1CC(NC(=O)c2cn(C3CC3)nn2)C1 (stereo not drawn) [compound 952, 1-cyclopropyl-N-(1-(1-(1-methyl-1H-indazol-5-yl)ethyl)azetidin-3-yl)-1H-1,2,3-triazole-4-carboxamide]
5600 | O=C(NC1CN(Cc2ccc(Cn3cccn3)cc2)C1)c1cn(C2CC2)nn1 [compound 953, N-(1-(4-((1H-pyrazol-1-yl)methyl)benzyl)azetidin-3-yl)-1-cyclopropyl-1H-1,2,3-triazole-4-carboxamide]
2400 | O=C(NC1CN(Cc2ccc(Cn3cccn3)cc2)C1)c1cc(C2CC2)cnn1 [compound 954, N-(1-(4-((1H-pyrazol-1-yl)methyl)benzyl)azetidin-3-yl)-5-cyclopropylpyridazine-3-carboxamide]

IC50 [nM] | SMILES
73 | O=C(NC1CN(Cc2cnn(Cc3ccccc3)c2)C1)c1cc(C2CC2)on1 [compound 955, N-(1-((1-benzyl-1H-pyrazol-4-yl)methyl)azetidin-3-yl)-5-cyclopropylisoxazole-3-carboxamide]
2600 | CC(c1cccc(OCC(C)(C)O)c1Cl)N1CC(NC(=O)c2cn(C3CC3)nn2)C1 (stereo not drawn) [compound 956, N-(1-(1-(2-chloro-3-(2-hydroxy-2-methylpropoxy)phenyl)ethyl)azetidin-3-yl)-1-cyclopropyl-1H-1,2,3-triazole-4-carboxamide]
160 | COc1ccc(COc2ccc(C(C)N3CC(NC(=O)c4cn(C5CC5)nn4)C3)cc2)cc1 (stereo not drawn) [compound 957, 1-cyclopropyl-N-(1-(1-(4-((4-methoxybenzyl)oxy)phenyl)ethyl)azetidin-3-yl)-1H-1,2,3-triazole-4-carboxamide]
600 | COc1ccc(C(C)N2CC(NC(=O)c3cc(C4CC4)cnn3)C2)cc1 (stereo not drawn) [compound 958, 5-cyclopropyl-N-(1-(1-(4-methoxyphenyl)ethyl)azetidin-3-yl)pyridazine-3-carboxamide]
2000 | CC(c1ccc(OCCN(C)C)cc1)N1CC(NC(=O)c2cn(C3CC3)nn2)C1 (stereo not drawn) [compound 959, 1-cyclopropyl-N-(1-(1-(4-(2-(dimethylamino)ethoxy)phenyl)ethyl)azetidin-3-yl)-1H-1,2,3-triazole-4-carboxamide]
780 | CC(c1ccc(OCCc2ccccc2)cc1)N1CC(NC(=O)c2cn(C3CC3)nn2)C1 (stereo not drawn) [compound 960, 1-cyclopropyl-N-(1-(1-(4-phenethoxyphenyl)ethyl)azetidin-3-yl)-1H-1,2,3-triazole-4-carboxamide]
1300 | CC(C)N1CC(NC(=O)c2cc(C3CC3)ccn2)C1 [compound 961, 4-cyclopropyl-N-(1-isopropylazetidin-3-yl)picolinamide]
480 | CC(c1cc(Cl)ccc1Cl)N1CC(NC(=O)c2cc(C3CC3)ccn2)C1 (stereo not drawn) [compound 962, 4-cyclopropyl-N-(1-(1-(2,5-dichlorophenyl)ethyl)azetidin-3-yl)picolinamide]
970 | CNC(=O)c1ccc(COc2ccc(C(C)N3CC(NC(=O)c4cn(C5CC5)nn4)C3)cc2)cc1 (stereo not drawn) [compound 963, 1-cyclopropyl-N-(1-(1-(4-((4-(methylcarbamoyl)benzyl)oxy)phenyl)ethyl)azetidin-3-yl)-1H-1,2,3-triazole-4-carboxamide]
10500 | CC(c1cccc(OCCO)c1Cl)N1CC(NC(=O)c2cc(C3CC3)ccn2)C1 (stereo not drawn) [compound 964, N-(1-(1-(2-chloro-3-(2-hydroxyemoxy)phenyl)ethyl)azetidin-3-yl)-4-cyclopropylpicolinamide]
72 | COc1cccc(C(C)N2CC(NC(=O)c3cc(C4CC4)cnn3)C2)c1Cl (stereo not drawn) [compound 965, N-(1-(1-(2-chloro-3-memoxyphenyl)ethyl)azetidin-3-yl)-5-cyclopropylpyridazine-3-carboxamide]
13 | O=C(NC1CN(Cc2cnn(Cc3ccccc3)c2)C1)c1cc(C2CC2)ccn1 [compound 966, N-(1-((1-benzyl-1H-pyrazol-4-yl)methyl)azetidin-3-yl)-4-cyclopropylpicolinamide]
150 | O=C(NC1CN(Cc2ccc(OCc3ccccc3)cc2)C1)c1cc(C2CC2)ccn1 [compound 967, N-(1-(4-(benzyloxy)benzyl)azetidin-3-yl)-4-cyclopropylpicolinamide]
1700 | CC(c1ccc(OCC(F)(F)F)cc1)N1CC(NC(=O)c2cn(C3CC3)nn2)C1 (stereo not drawn) [compound 968, 1-cyclopropyl-N-(1-(1-(4-(2,2,2-trifluoroethoxy)phenyl)ethyl)azetidin-3-yl)-1H-1,2,3-triazole-4-carboxamide]
5100 | CC(c1cc(Cl)ccc1OC(F)F)N1CC(NC(=O)c2cn(C3CC3)nn2)C1 (stereo not drawn) [compound 970, N-(1-(1-(5-chloro-2-(difluoromethoxy)phenyl)ethyl)azetidin-3-yl)-1-cyclopropyl-1H-1,2,3-triazole-4-carboxamide]
88 | Cc1ccc(COc2ccc(C(C)N3CC(NC(=O)c4cn(C5CC5)nn4)C3)cc2)cc1 (stereo not drawn) [compound 971, 1-cyclopropyl-N-(1-(1-(4-((4-methylbenzyl)oxy)phenyl)ethyl)azetidin-3-yl)-1H-1,2,3-triazole-4-carboxamide]
1300 | O=C(NC1CN(Cc2ccc(OCc3cccnc3)cc2)C1)c1cn(C2CC2)nn1 [compound 972, 1-cyclopropyl-N-(1-(4-(pyridin-3-ylmemoxy)benzyl)azetidin-3-yl)-1H-1,2,3-triazole-4-carboxamide]
> 50000 | CC(c1cccc(OCC(O)CO)c1Cl)N1CC(NC(=O)c2cn(C3CC3)nn2)C1 (stereo not drawn) [compound 973, N-(1-(1-(2-chloro-3-(2,3-dihydroxypropoxy)phenyl)ethyl)azetidin-3-yl)-1-cyclopropyl-1H-1,2,3-triazole-4-carboxamide]

Source: patent US10266526B2, “Substituted 1,2,3-triazoles as SMYD inhibitors for treating cancer” (EPIZYME, INC., priority 2014, dated 2019)
